Calls of active or inactive are those of the source. The calls are words filed in the database; no cut-off is given here.
How the values were obtained:
Mus musculus [1] = test: In vivo activity tested against C3H mice bearing panc-03 murine tumor measured as body weight loss at 1530 mg/kg (po); format: functional
Mus musculus [2] = test: In vivo activity tested against C3H mice bearing panc-03 murine tumor measured as log Kill value was based on tumors that grew at 1530 mg/kg (po); format: functional, organism-based; design: dose 1530 mg/kg
Mus musculus [3] = test: In vivo activity tested against C3H mice bearing panc-03 murine tumor measured as % treated/control calculated at 1530 mg/kg (po); format: functional
Mus musculus [4] = test: In vivo activity tested against C3H mice bearing colon adenocarcinoma -38(colon-38) tumor measured as body weight loss at 466 mg/kg (po); format: functional
Mus musculus [5] = test: In vivo activity tested against C3H mice bearing colon adenocarcinoma -38(colon-38) tumor measured as body weight loss at 753 mg/kg (po); format: functional
Mus musculus [6] = test: In vivo activity tested against C3H mice bearing colon adenocarcinoma -38(colon-38) tumor measured as % treated/control calculated at 466 mg/kg (po); format: functional
Mus musculus [7] = test: In vivo activity tested against C3H mice bearing colon adenocarcinoma -38(colon-38) tumor measured as % treated/control calculated at 753 mg/kg (po); format: functional
Mus musculus [8] = test: In vivo activity tested against C3H mice bearing colon adenocarcinoma -38(colon-38) tumor measured as activity rating at 466 mg/kg (po); format: functional
Mus musculus [9] = test: In vivo activity tested against C3H mice bearing colon adenocarcinoma -38(colon-38) tumor measured as activity rating at 753 mg/kg (po); format: functional
Mus musculus [10] = test: In vivo activity tested against C3H mice bearing colon adenocarcinoma -38(colon-38) tumor, measured as cures at 466 mg/kg (po); 3/5 cures; format: functional
Mus musculus [11] = test: In vivo activity tested against C3H mice bearing colon adenocarcinoma -38(colon-38) tumor, measured as cures at 753 mg/kg (po); 2/5 cures; format: functional
Mus musculus [12] = test: In vivo activity tested against C3H mice bearing colon adenocarcinoma -38(colon-38) tumor measured as log Kill value was based on tumors that grew at 466 mg/kg (po); format: functional, organism-based; design: dose 466 mg/kg
Mus musculus [13] = test: In vivo activity tested against C3H mice bearing colon adenocarcinoma -38(colon-38) tumor measured as log Kill value was based on tumors that grew at 753 mg/kg (po); format: functional, organism-based; design: dose 753 mg/kg
Mus musculus [14] = test: In vivo activity tested against C3H mice bearing panc-03 murine tumor at a dose of 330mg/kg, measured as % treated/control; format: functional
Mus musculus [15] = test: In vivo activity tested against C3H mice bearing Mam 17/Adr murine tumor at a dose of 330 mg/kg, measured as activity rating; format: functional
Mus musculus [16] = test: In vivo activity tested against C3H mice bearing panc-03 murine tumor at a dose of 330mg/kg, measured as activity rating; format: functional
Mus musculus [17] = test: In vivo activity tested against C3H mice bearing colon adenocarcinoma -38(colon-38) tumor measured as body weight loss at 1590 mg/kg (po); format: functional
Mus musculus [18] = test: In vivo activity tested against C3H mice bearing colon adenocarcinoma -38(colon-38) tumor measured as % treated/control calculated at 1590 mg/kg (po); format: functional
Mus musculus [19] = test: In vivo activity tested against C3H mice bearing colon adenocarcinoma -38(colon-38) tumor measured as log Kill value was based on tumors that grew at 1590 mg/kg (po); None; format: functional, organism-based; design: dose 1590 mg/kg
Mus musculus [20] = test: In vivo activity tested against C3H mice bearing colon adenocarcinoma -38(colon-38) tumor measured as activity rating at 1590 mg/kg (po); format: functional
Mus musculus [21] = test: In vivo activity tested against C3H mice bearing panc-03 murine tumor measured as% treated/control calculated at 477 mg/kg (po); format: functional
Mus musculus [22] = test: In vivo activity tested against C3H mice bearing panc-03 murine tumor measured as body weight loss at 477 mg/kg (po); format: functional
Mus musculus [23] = test: In vivo activity tested against C3H mice bearing panc-03 murine tumor measured as log Kill value was based on tumors that grew at 477 mg/kg (po); kill value was NIL; format: functional, organism-based; design: dose 477 mg/kg
Mus musculus [24] = test: In vivo activity tested against C3H mice bearing panc-03 murine tumor; format: functional
Mus musculus [25] = test: In vivo activity tested against C3H mice bearing panc-03 murine tumor measured as % treated/control calculated at 480 mg/kg (po); format: functional
Mus musculus [26] = test: In vivo activity tested against C3H mice bearing panc-03 murine tumor measured as body weight loss at 2300 mg/kg (po); format: functional
Mus musculus [27] = test: In vivo activity tested against C3H mice bearing panc-03 murine tumor measured as body weight loss at 480 mg/kg (po); format: functional
Mus musculus [28] = test: In vivo activity tested against C3H mice bearing panc-03 murine tumor measured as log Kill value was based on tumors that grew at 2300 mg/kg (po); format: functional, organism-based; design: dose 2300 mg/kg
Mus musculus [29] = test: In vivo activity tested against C3H mice bearing panc-03 murine tumor measured as log Kill value was based on tumors that grew at 480 mg/kg (po); format: functional, organism-based; design: dose 480 mg/kg
Mus musculus [30] = test: In vivo activity tested against C3H mice bearing panc-03 murine tumor measured as % treated/control calculated at 2300 mg/kg (po); format: functional
Mus musculus [31] = test: In vivo activity tested against C3H mice bearing panc-03 murine tumor measured as cures at 2300 mg/kg (po); 1/5 cures; format: functional
Mus musculus [32] = test: In vivo activity tested against C3H mice bearing panc-03 murine tumor measured as body weight loss at 1310 mg/kg (po); format: functional
Mus musculus [33] = test: In vivo activity tested against C3H mice bearing panc-03 murine tumor measured as % treated/control calculated at 1310 mg/kg (po); format: functional
Mus musculus [34] = test: In vivo activity tested against C3H mice bearing panc-03 murine tumor measured as log Kill value was based on tumors that grew at 1310 mg/kg (po); format: functional, organism-based; design: dose 1310 mg/kg
Mus musculus [35] = test: In vivo activity tested against C3H mice bearing panc-03 murine tumor measured as % treated/control calculated at 939 mg/kg (po); format: functional
Mus musculus [36] = test: In vivo activity tested against C3H mice bearing panc-03 murine tumor measured as body weight loss at 939 mg/kg (po); format: functional
Mus musculus [37] = test: In vivo activity tested against C3H mice bearing panc-03 murine tumor measured as log Kill value was based on tumors that grew at 939 mg/kg (po); format: functional, organism-based; design: dose 939 mg/kg
Mus musculus [38] = test: In vivo activity tested against C3H mice bearing panc-03 murine tumor measured as % treated/control calculated at 530 mg/kg (po); format: functional
Mus musculus [39] = test: In vivo activity tested against C3H mice bearing panc-03 murine tumor measured as body weight loss at 530 mg/kg (po); format: functional
Mus musculus [40] = test: In vivo activity tested against C3H mice bearing panc-03 murine tumor measured as log Kill value was based on tumors that grew at 530 mg/kg (po); format: functional, organism-based; design: dose 530 mg/kg
Mus musculus [41] = test: In vivo activity tested against C3H mice bearing panc-03 murine tumor measured as % treated/control calculated at 287 mg/kg (po); format: functional
Mus musculus [42] = test: In vivo activity tested against C3H mice bearing panc-03 murine tumor measured as % treated/control calculated at 351 mg/kg (po); format: functional
Mus musculus [43] = test: In vivo activity tested against C3H mice bearing panc-03 murine tumor measured as body weight loss at 287 mg/kg (po); format: functional
Mus musculus [44] = test: In vivo activity tested against C3H mice bearing panc-03 murine tumor measured as body weight loss at 351 mg/kg (po); format: functional
Mus musculus [45] = test: In vivo activity tested against C3H mice bearing panc-03 murine tumor measured as log Kill value was based on tumors that grew at 287 mg/kg (po); format: functional, organism-based; design: dose 287 mg/kg
Mus musculus [46] = test: In vivo activity tested against C3H mice bearing panc-03 murine tumor measured as log Kill value was based on tumors that grew at 351 mg/kg (po); format: functional, organism-based; design: dose 351 mg/kg

SMILES: CC(Oc1ccc(Oc2cnc3ccc(Cl)cc3n2)cc1)C(=O)N(C)C (stereo unspecified)
- Body weight loss (Mus musculus [1]): -3.8%
- Log kill (Mus musculus [2]): 2.2
- T/C (Mus musculus [3]): 16%

SMILES: CC(Oc1ccc(Oc2cnc3ccc(Br)cc3n2)cc1)C(=O)O (stereo unspecified)
- Body weight loss (Mus musculus [4]): -7%
- Body weight loss (Mus musculus [5]): -12%
- T/C (Mus musculus [6]): 0%
- T/C (Mus musculus [7]): 0%
- Activity rating (Mus musculus [8]): 2.8
- Activity rating (Mus musculus [9]): >2.8
- Cures (Mus musculus [10]): 3
- Cures (Mus musculus [11]): 2
- Log kill (Mus musculus [12]): 2.1
- Log kill (Mus musculus [13]): 3

SMILES: CC(Sc1ccc(Oc2cnc3ccc(Cl)cc3n2)cc1)C(=O)O (stereo unspecified)
- T/C (Mus musculus [14]): 100%
- Activity rating (Mus musculus [15]): >2.8
- Activity rating (Mus musculus [16]): >2.8

SMILES: CC(Oc1ccc(Oc2cnc3cc(Cl)ccc3n2)cc1)C(=O)O (stereo unspecified) [QUIZALOFOP]
- Body weight loss (Mus musculus [17]): -4%
- T/C (Mus musculus [18]): >100%
- Log kill (Mus musculus [19]): inactive
- Activity rating (Mus musculus [20]): <0.7

SMILES: CC(Oc1ccc(Oc2cnc3ccc(Cl)cc3n2)cc1)C1N=NN=N1 (stereo unspecified)
- T/C (Mus musculus [21]): >100%
- Body weight loss (Mus musculus [22]): 8.7%
- Log kill (Mus musculus [23]): kill value was NIL
- Activity rating (Mus musculus [24]): <0.7

SMILES: CNC(=O)C(C)Oc1ccc(Oc2cnc3ccc(Cl)cc3n2)cc1 (stereo unspecified)
- T/C (Mus musculus [25]): 39%
- Body weight loss (Mus musculus [26]): -14.5%
- Body weight loss (Mus musculus [27]): -9.3%
- Log kill (Mus musculus [28]): 4.2
- Log kill (Mus musculus [29]): 1.2
- T/C (Mus musculus [30]): 4%
- Cures (Mus musculus [31]): 1

SMILES: CC(Oc1ccc(Oc2cnc3ccc([N+](=O)[O-])cc3n2)cc1)C(=O)O (stereo unspecified)
- Body weight loss (Mus musculus [32]): -3.5%
- T/C (Mus musculus [33]): 52%
- Log kill (Mus musculus [34]): 0.6

SMILES: COc1ccc2ncc(Oc3ccc(OC(C)C(=O)O)cc3)nc2c1Cl (stereo unspecified)
- T/C (Mus musculus [35]): 76%
- Body weight loss (Mus musculus [36]): 11.1%
- Log kill (Mus musculus [37]): 0

SMILES: CC(Oc1ccc(Oc2cnc3ccc(I)cc3n2)cc1)C(=O)O (stereo unspecified)
- T/C (Mus musculus [38]): 15%
- Body weight loss (Mus musculus [39]): 0%
- Log kill (Mus musculus [40]): 1.8

SMILES: CC(Oc1ccc(Oc2cnc3cccc(Cl)c3n2)cc1)C(=O)O (stereo unspecified)
- T/C (Mus musculus [41]): 69%
- T/C (Mus musculus [42]): 74%
- Body weight loss (Mus musculus [43]): -3.9%
- Body weight loss (Mus musculus [44]): -4%
- Log kill (Mus musculus [45]): 0.1
- Log kill (Mus musculus [46]): 0
